The results in this text go back to ChEMBL document CHEMBL5154867, “Baylis-Hillman Adducts as a Versatile Module for Constructing Fluorogenic Release System” (J Med Chem, 2022).

Activity calls are given as the source filed them. No cut-off for these calls is given here. Some results are limits rather than exact numbers.

Data set [1] can be described thus: Drug uptake in zebrafish embryo assessed as penetration depth at 20 uM treated for 20 mins by two-photon based fluorescence microscopy. Conditions: in vivo. Type of data set: ADME, Danio rerio.
Data set [2] in a line: Prodrug activation in PBS at pH 7.4 assessed as GSH-induced NO release by measuring increase in fluorescence at 10 uM in presence of 1 mM GSH. To be noted: buffer, pH 7.4, 10 µM.
The nature of data set [3]: Prodrug activation in human HepG2 cells assessed as NO release by measuring red fluorescence at 20 uM treated for 15 mins by dRB-OPD staining based fluorescence microscopy. It counts as cell-based. To be noted: hepg2, 0.25 h.
A short description of data set [4]: Prodrug activation in zebrafish assessed as NO release by measuring red fluorescence signal at 20 uM incubated for 20 mins by dRB-OPD staining based fluorescence microscopy. Details: species or system Danio rerio.
Data set [5] relates to BV-2. The experiment in a line: Neuroprotective activity against OGD-induced mouse BV2 cells assessed as increase in cell viability at 2 to 4 uM incubated for 4 hrs followed by reoxygenation by MTT assay. To be noted: dose 2-4 µM. It counts as functional, cell-based. Background: Tetrazolium assays rely on reduction of a dye to a coloured formazan, in cell work by metabolically active cells.

A short description of data set [6]: Prodrug activation in PBS at pH 7.4 assessed as GSH bis-adduct at 10 uM incubated upto 60 mins in presence of 1 mM GSH by LC-MS analysis. To be noted: buffer, pH 7.4, 1 h.
Data set [7] in a line: Drug uptake in mouse brain assessed as penetration depth at 1 mM treated for 2 hrs by two-photon based fluorescence microscopy. Type of data set: ADME, tissue-based. To be noted: in vivo, 1000 µM.
Data set [8] has as its system BV-2. The experiment in a line: Cytotoxicity against mouse BV-2 cells assessed as cell survival upto 2 uM incubated for 24 hrs by MTT assay. It counts as toxicity, cell-based. To be noted: bv-2, 24 h.
A short description of data set [9]: Prodrug activation in PBS assessed as increase in GSH-activated NO release at 10 uM in presence of 1 mM GSH measured for 40 mins by Griess assay. To be noted: buffer. For orientation: Griess reagent forms a coloured azo dye with nitrite.
Data set [10] in a line: Stability of compound in mouse plasma assessed as prodrug remaining at 100 uM measured upto 12 hrs by HPLC analysis. Type of data set: ADME, cell-free.
The nature of data set [11]: Prodrug activation in PBS assessed as amount of GSH-activated NO release at 17 uM in presence of 1 mM GSH by Griess assay. To be noted: buffer.
Data set [12] in a line: Prodrug activation in human HepG2 cells assessed as bis-thiol adduct by measuring green fluorescence at 20 uM treated for 15 mins by fluorescence microscopy. It counts as cell-based. Conditions: hepg2, 0.25 h.
Data set [13] in a line: Prodrug activation in PBS at pH 7.4 assessed as decrease in compound at 10 uM incubated upto 60 mins in presence of 1 mM GSH by LC-MS analysis. To be noted: buffer, pH 7.4, 1 h.
For data set [14], the system named is BV-2. The experiment in a line: Neuroprotective activity against OGD-induced mouse BV2 cells assessed as morphological change at 1 to 4 uM incubated for 4 hrs by fluorescence microscopy. It counts as functional, cell-based. Conditions: dose 1-4 µM.
The test system of a further data set is Astrocyte. Briefly: Cytotoxicity against astrocyte cells assessed as cell survival upto 2 uM incubated for 24 hrs by MTT assay. Type of data set: toxicity, cell-based.
Data set [15] is described as follows: Prodrug activation in PBS at pH 7.4 assessed as change in fluorescence signal at 10 uM incubated for 60 mins in presence of 1 mM cysteine by fluorescence based assay. Conditions: buffer, pH 7.4, 1 h.
A short description of data set [16]: Prodrug activation in zebrafish assessed as green fluorescence signal at 20 uM incubated for 20 mins by fluorescence microscopy. On the set-up: species or system Danio rerio.
Data set [17] is described as follows: Prodrug activation in PBS at pH 6.5 to 9.0 at 10 uM incubated for 60 mins in presence of 1 mM GSH by fluorescence based assay. To be noted: buffer, pH 6.5, 1 h.
The nature of data set [18]: Prodrug activation in PBS at pH 7.4 assessed as change in fluorescence signal at 10 uM incubated for 60 mins in presence of 1 mM homocysteine by fluorescence based assay. To be noted: buffer, pH 7.4, 1 h.
A short description of data set [19]: Prodrug activation in PBS at pH 7.4 assessed as GSH-induced NO release by measuring increase in fluorescence at 10 uM incubated for 60 mins in presence of 1 mM GSH by fluorescence based assay. To be noted: buffer, pH 7.4, 1 h.
Data set [20] deals with BV-2. Briefly: Cytotoxicity against mouse BV2 cells assessed as cell survival at less than 4 uM incubated for 24 hrs by MTT assay. It counts as toxicity, cell-based. To be noted: bv-2, 24 h.
Data set [21] is described as follows: Prodrug activation in PBS at pH 7.4 assessed as GSH mono-adduct formation at 10 uM in presence of 1 mM GSH measured after 5 mins by LC-MS analysis. To be noted: buffer, pH 7.4, 5 min.
Data set [22] can be described thus: Prodrug activation in human HepG2 cells assessed as retention time of CPT by LC-MS analysis. Type of data set: cell-based.
Data set [23] is described as follows: Prodrug activation in PBS at pH 7.4 assessed as CPT release at 10 uM in presence of 1 mM GSH measured after 5 mins by LC-MS analysis. Conditions: buffer, pH 7.4, 5 min.
Data set [24] can be described thus: Prodrug activation in PBS at pH 7.4 assessed as retention time of prodrug at 10 uM in presence of 1 mM GSH by LC-MS analysis. Conditions: buffer, pH 7.4, 10 µM.
The nature of data set [25]: Prodrug activation in human HepG2 cells assessed as retention time of prodrug by LC-MS analysis. It counts as cell-based.
The nature of data set [26]: Prodrug activation in PBS at pH 7.4 assessed as retention time of GSH bis-adduct formation at 10 uM in presence of 1 mM GSH by LC-MS analysis. Conditions: buffer, pH 7.4, 10 µM.
The nature of data set [27]: Prodrug activation in PBS at pH 7.4 assessed as retention time of CPT at 10 uM in presence of 1 mM GSH by LC-MS analysis. To be noted: buffer, pH 7.4, 10 µM.
Data set [28] is described as follows: Prodrug activation in PBS at pH 7.4 assessed as rate of CPT release at 10 uM measured within 10 mins by fluorescence microscopy. Conditions: buffer, pH 7.4, 10 min.
Data set [29] in a line: Prodrug activation in human HepG2 cells assessed as CPT release by measuring blue fluorescence at 10 uM incubated upto 30 mins by inverted fluorescence microscopy. Type of data set: cell-based. To be noted: hepg2, 0.5 h.
Data set [30] is described as follows: Prodrug activation in PBS at pH 7.4 assessed as retention time of GSH mono-adduct formation at 10 uM in presence of 1 mM GSH by LC-MS analysis. Conditions: buffer, pH 7.4, 10 µM.
Data set [31] is described as follows: Prodrug activation in PBS at pH 7.4 assessed as CPT release at 10 uM measured within 30 mins by fluorescence microscopy. To be noted: buffer, pH 7.4, 0.5 h.
The nature of data set [32]: Prodrug activation in PBS at pH 7.4 assessed as GSH bis-adduct formation at 10 uM in presence of 1 mM GSH measured 10 mins by LC-MS analysis. Conditions: buffer, pH 7.4, 10 min.
Data set [33] is described as follows: Prodrug activation in human HepG2 cells assessed as GSH bis-adduct formation by measuring green fluorescence at 10 uM incubated upto 30 mins by inverted fluorescence microscopy. Conditions: hepg2, 0.5 h. Type of data set: cell-based.
Data set [34] in a line: Prodrug activation in human HepG2 cells assessed as retention time of GSH bis-adduct formation at 10 uM treated for 1 hr in presence of 1 mM GSH by LC-MS analysis. It counts as cell-based. Conditions: hepg2, 1 h.

Regarding `C=C(CO/N=[N+](/[O-])N1CCCC1)C(=O)c1ccc2cc(N(C)C)ccc2c1`, the Drug metabolism result in [1], in [3], in [4], in [7], in [12] and in data set [16] was “Metabolite_Detected” each time. Moreover, the Activity entry in data set [2] is “Active”; in data set [6] it was “Active”; with BV-2 [8], “Non-Toxic”; in data set [9], “Active”; in data set [11], 85%; in data set [13] it was “Active”. In addition, the Activity entry in the data set with Astrocyte is listed as “Non-Toxic”; in data set [15] it was “Active”; in data set [17], “Active”; in data set [18], “Active”; in [19] it was “Active”; with BV-2 [20] it was “Active”. The outcome with BV-2 [5] and in the data set with BV-2 [14] was Active. In [10], the Stability is listed as over 60%.

Consider `C=C(COC(=O)O[C@]1(CC)C(=O)OCc2c1cc1n(c2=O)Cc2cc3ccccc3nc2-1)C(=O)c1ccc2cc(N(C)C)ccc2c1`, for which the Activity entry in [21] was “Active”; in [23], “Active”; in data set [28] it was over 90%; in data set [31], “Active”; in data set [32], “Active”. The Retention_time in data set [22] is recorded as 10.2 min; in data set [24] it was 28.9 min; in data set [25] it was 28.9 min; in data set [26], 5.1 min; in data set [27], 10.2 min; in data set [30] it was 13.5 min. In addition, in [34], the Retention_time was 5.1 min. For the same compound, in data set [10], the Stability is over 60%. Moreover, the Drug metabolism result in [29] and in [33] was “Metabolite_Detected” in each case.
